# Earlier results, collected in patent publication US20200197416A1, “PHARMACEUTICAL COMPOSITION COMPRISING ABIRATERONE ACETATE AND DARULOTAMIDE” (NanGenex Nanotechnology Incorporated, priority 2017, published 2020).
# Read-outs that look alike come from different tables or passages of the source.
# Tests used:
# [1] = system: serum testosterone and other androgens; details: patients, placebo-controlled phase 3 clinical trial
# P-glycoprotein (P-gp) = P-glycoprotein (P-gp) (Homo sapiens, UniProt P08183)
# [2] = not given; remark: listed apart in the source
# [3] = for compound present in feces, % of the administered dose: oral 14C-abiraterone acetate
# [4] = not given; remark: listed apart in the source
# [5] = system: human plasma proteins, albumin and alpha-1 acid glycoprotein
# [6] = not given; remark: listed apart in the source
# AR = details: preclinical trials
# PSA levels = details: early phase clinical trials, Western mCRPC patients
# [7] = in vivo
# [8] = for geometric mean Cmax,md / median tmax.md: day 7
# [9] = not given; remark: listed apart in the source
# [10] = 1,000 mg daily, patients with metastatic CRPC
# [11] = high-fat (57% fat, 825 calories) meal
# [12] = low-fat meal (7% fat, 300 calories)
# [13] = single dose of Abiraterone acetate, up to
# Chain of P-glycoprotein (P-gp) (P08183 whole entry): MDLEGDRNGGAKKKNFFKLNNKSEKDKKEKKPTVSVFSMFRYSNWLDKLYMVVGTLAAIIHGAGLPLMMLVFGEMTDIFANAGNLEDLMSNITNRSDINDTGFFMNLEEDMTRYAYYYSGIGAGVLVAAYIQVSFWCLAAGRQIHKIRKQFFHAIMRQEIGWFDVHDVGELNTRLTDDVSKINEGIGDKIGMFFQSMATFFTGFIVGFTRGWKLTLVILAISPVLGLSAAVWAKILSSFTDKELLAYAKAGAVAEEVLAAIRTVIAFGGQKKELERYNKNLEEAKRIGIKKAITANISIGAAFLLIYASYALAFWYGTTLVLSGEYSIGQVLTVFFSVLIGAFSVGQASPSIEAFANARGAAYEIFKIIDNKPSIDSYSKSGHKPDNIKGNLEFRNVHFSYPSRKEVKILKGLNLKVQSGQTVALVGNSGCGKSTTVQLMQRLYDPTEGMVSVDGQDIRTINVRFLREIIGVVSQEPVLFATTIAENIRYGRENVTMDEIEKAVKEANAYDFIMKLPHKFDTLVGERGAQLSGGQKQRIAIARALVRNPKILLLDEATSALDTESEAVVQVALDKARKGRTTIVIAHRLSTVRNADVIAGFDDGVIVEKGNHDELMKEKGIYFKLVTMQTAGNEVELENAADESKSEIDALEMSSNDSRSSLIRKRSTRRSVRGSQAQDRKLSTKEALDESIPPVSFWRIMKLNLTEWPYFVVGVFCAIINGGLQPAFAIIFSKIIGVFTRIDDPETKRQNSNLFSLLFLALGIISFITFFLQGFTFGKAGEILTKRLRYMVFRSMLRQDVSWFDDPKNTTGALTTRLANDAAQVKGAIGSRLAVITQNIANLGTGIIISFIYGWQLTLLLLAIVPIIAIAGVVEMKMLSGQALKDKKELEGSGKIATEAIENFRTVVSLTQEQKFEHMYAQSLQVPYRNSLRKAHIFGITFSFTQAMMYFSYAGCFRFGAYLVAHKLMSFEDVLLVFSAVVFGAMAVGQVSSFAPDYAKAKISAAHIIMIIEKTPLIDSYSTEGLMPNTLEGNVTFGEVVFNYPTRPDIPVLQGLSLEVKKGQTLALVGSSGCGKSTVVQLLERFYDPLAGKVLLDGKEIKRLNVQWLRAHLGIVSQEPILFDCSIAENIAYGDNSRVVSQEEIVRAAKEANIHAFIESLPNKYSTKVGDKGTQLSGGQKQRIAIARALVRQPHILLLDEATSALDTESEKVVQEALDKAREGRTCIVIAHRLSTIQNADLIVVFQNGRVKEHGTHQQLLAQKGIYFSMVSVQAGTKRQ
molecule,measurement,setting,value
"CC(=O)O[C@H]1CC[C@@]2(C)C(=CC[C@@H]3[C@@H]2CC[C@]2(C)C(c4cccnc4)=CC[C@@H]32)C1 [Abiraterone acetate, (3β)-17-(3-pyridinyl) androsta-5,16-dien-3-yl acetate]",pKa of the aromatic nitrogen,,5.19
same,effect on serum testosterone and other androgens,[1],decreased
same,inhibition of P-gp,P-glycoprotein (P-gp); not told,inhibitor of P-gp
same,substrate of P-glycoprotein (P-gp),P-glycoprotein (P-gp); not told,not substrates
same,Abiraterone acetate plasma concentrations,"[2]; clinical studies, below detectable levels in >99% of the analyzed samples",< 0.2 ng/mL
same,"compound present in feces, % of the administered dose",[3],approximately 55%
same,solubility in water,[4],practically insoluble
C[C@]12CC[C@H](O)CC1=CC[C@@H]1[C@@H]2CC[C@]2(C)C(c3cccnc3)=CC[C@@H]12 [Abiraterone],bound to human plasma proteins,[5],> 99%
same,substrate of P-glycoprotein (P-gp),"P-glycoprotein (P-gp); in vitro, clinically relevant concentrations",not substrates
same,steady-state AUC (mean±SD),[2]; [10],993 ± 639 ng·h/mL
same,steady-state C. (mean±SD),[2]; [10],226 ± 178 ng/mL
same,increase in the mean AUC when dose doubled,"[2]; dose doubled from 1,000 to 2,000 mg",8%
same,apparent steady-state volume of distribution (mean±SD),"[2]; human, in vivo","19,669±13,358 L"
same,median time to reach maximum plasma Abiraterone concentrations,"[2]; oral Abiraterone acetate, patients with metastatic CRPC",2 h
same,mean terminal half-life of Abiraterone in plasma (mean±SD),[2]; patients with metastatic CRPC,12 ± 5 h
same,"accumulation: steady-state AUC compared to a single 1,000 mg dose","[2]; steady-state vs single 1,000 mg dose of Abiraterone acetate",2 fold
same,"Abiraterone AUC0-28, fold higher with food",[6]; [11],~10 fold
same,"Abiraterone Cmax, fold higher with food",[6]; [11],approximately 17 fold
same,"Abiraterone AUC0-28, fold higher with food",[6]; [12],~5 fold
same,"Abiraterone Cmax, fold higher with food",[6]; [12],approximately 7 fold
same,Abiraterone AUC0-28 (exposure) increase (food effect),[6]; [13],≤ 10 fold
same,Abiraterone Cmax increase (food effect),[6]; [13],up to 17 fold
same,"compound present in feces, % of the administered dose",[3],~22%
CC(O)c1cc(C(=O)N[C@@H](C)Cn2ccc(-c3ccc(C#N)c(Cl)c3)n2)n[nH]1 (stereo partly drawn) [Darolutamide],binding affinity compared with other AR antagonists (such as bicalutamide and enzalutamide),AR,higher binding affinity
same,PSA levels,PSA levels,significant reductions
same,blood-brain barrier penetration,[7],negligible
same,"Cmax,md versus Cmax after single dose under fed conditions",[8]; 300 mg,approximately 1.8 times
same,geometric mean AUCtau(0-12)md,[8]; 300 mg BID,44400 ng·h/mL
same,mean linearity factor (RLIN),[8]; 300 mg BID,0.910
same,"geometric mean Cmax,md",[8]; 300 mg BID,4600 ng/mL
same,median tmax.md,[8]; 300 mg BID,4.98 h
same,"Cmax,md versus Cmax after single dose under fed conditions",[8]; 600 mg,~1.7 times
same,geometric mean AUCtau(0-12)md,[8]; 600 mg BID,58700 ng·h/mL
same,mean linearity factor (RLIN),[8]; 600 mg BID,0.961
same,"geometric mean Cmax,md",[8]; 600 mg BID,5800 ng/mL
same,median tmax.md,[8]; 600 mg BID,5.48 h
same,increase in exposure after multiple dosing with 600 mg BID versus 300 mg BID,[8]; in vivo,1.3 fold
same,Cmax after single dose under fed conditions,"[9]; 300 mg single dose, fed",2590 ng/mL
same,Cmax after single dose under fed conditions,"[9]; 600 mg single dose, fed",3500 ng/mL
same,AUC(0-t last) fed state compared with fasting state,[9]; after 300 and 600 mg,2.5 fold
same,bioavailability fed versus fasting conditions,[9]; single oral dose 300 mg,2.5 fold
same,bioavailability fed versus fasting conditions,[9]; single oral dose 600 mg,2.8 fold
same,overall median tmax,[9]; single-dose period,3 to 6 h
same,terminal half-life,[9]; single-dose period,10 to 15 h
C[C@]12CC[C@H](OS(=O)(=O)O)CC1=CC[C@@H]1[C@@H]2CC[C@]2(C)C(c3ccc[n+]([O-])c3)=CC[C@@H]12 [N-oxide Abiraterone sulphate],share of exposure of circulating metabolite in human plasma,[3]; oral 14C-abiraterone acetate as capsules,about 43%
CC(=O)c1cc(C(=O)N[C@@H](C)Cn2ccc(-c3ccc(C#N)c(Cl)c3)n2)[nH]n1 [keto-Darolutamide],exposure to metabolite keto-Darolutamide compared with Darolutamide,"[9]; single dose 300 mg, fasting",1.28 fold
same,exposure to metabolite keto-Darolutamide compared with Darolutamide,"[9]; single dose 300 mg, fed",1.33 fold
same,exposure to metabolite keto-Darolutamide compared with Darolutamide,"[9]; single dose 600 mg, fasting",1.44 fold
same,exposure to metabolite keto-Darolutamide compared with Darolutamide,"[9]; single dose 600 mg, fed",1.61 fold
"(3β)-17-(3-pyridinyl) androsta-5,16-dien-3-yl acetate [Abiraterone acetate]",radioactive dose recovered in feces,[3]; oral administration,approximately 88%
same,radioactive dose recovered in urine,[3]; oral administration,approximately 5%
